Our source for the IC50 values is patent US8993557B2, “Pyridinedione carboxamide inhibitors of endothelial lipase” (Bristol-Myers Squibb Company, priority 2011, dated 2015).

Sequence of Endothelial lipase (EL) (Q9Y5X9 21-500): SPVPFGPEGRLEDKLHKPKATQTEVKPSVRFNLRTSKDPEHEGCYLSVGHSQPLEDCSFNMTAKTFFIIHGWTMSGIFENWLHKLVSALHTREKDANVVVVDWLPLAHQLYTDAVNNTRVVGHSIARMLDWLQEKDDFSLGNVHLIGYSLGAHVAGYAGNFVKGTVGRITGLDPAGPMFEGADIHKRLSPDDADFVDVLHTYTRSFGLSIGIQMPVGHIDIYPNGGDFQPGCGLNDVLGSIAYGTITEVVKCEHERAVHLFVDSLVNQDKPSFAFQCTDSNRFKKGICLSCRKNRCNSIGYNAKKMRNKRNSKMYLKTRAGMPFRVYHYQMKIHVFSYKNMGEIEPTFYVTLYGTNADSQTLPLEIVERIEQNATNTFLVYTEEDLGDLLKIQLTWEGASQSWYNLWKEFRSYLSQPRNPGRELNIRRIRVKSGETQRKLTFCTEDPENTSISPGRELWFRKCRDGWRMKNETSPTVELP

The assay addresses Endothelial lipase (EL) (Homo sapiens (Human), UniProt Q9Y5X9). Put plainly: Endothelial lipase (EL) enzymatic assay with fluorescent substrate A10070 in DMPG vesicles. It counts as biochemical. To be noted: conditioned media from HT-1080 cells overexpressing endogenous EL; 20 min preincubation at 37° C.; read-out: HLE_EL_CRC IC50. How it is done: Endothelial lipase activity was measured using a fluorescent substrate, A10070, (Invitrogen, CA) doped into an artificial vesicle containing DMPG (Avanti Polar Lipids) as the excipient. Vesicles were prepared by combining 285 uL of 1 mM DMPG in a 1:1 mixture of MeOH and CHCl3 with 15 uL of 1 mM A10070 in a 1:1 mixture of MeOH and CHCl3. The mixture was dried under nitrogen and resuspended in 150 uL of 50 mM HEPES pH 8.0 buffer containing 100 mM NaCl and 0.2 mM EDTA. The sample was allowed to sit at rt for 15 min and then was sonicated 3×4 mins on ice with a Branson Sonicator using duty cycle 1. This preparation provides vesicles with a mole fraction of 0.05 for the FRET substrate.
The enzymatic assay was measured using white, opaque 96-well half area plates. Each well contained 60 uL of assay buffer (50 mM HEPES pH 8.0, 50 mM NaCl and 1 mM CaCl2) and 2 ul of a DMSO solution containing compound of interest. Conditioned media obtained from HT-1080 cells, which were transformed by RAGE technology (Athersys) to overexpress endogenous EL, was added and the reaction was allowed to incubate for 20 min at 37° C. with gentle agitation. The reaction was started by the addition of 20 uL of a 1:4 dilution of vesicles. The final total reaction volume was 100 uL. The reaction rates were measured on a Gemini plate reader with an excitation wavelength of 488 nm and a emission of 530 nm. Readings were taken every 20 seconds for 10 min with agitation between each reading. The slope of the linear portion of the readout was used to calculate the rate of the reaction.
Take `O=C(N[C@H]1CC[C@@H](c2ccccc2)CC1)c1ccn(CCCC(F)(F)F)c(=O)c1O` [Example 39, 3-hydroxy-2-oxo-N-(cis-4-phenylcyclohexyl)-1-(4,4,4-trifluorobutyl)-1,2-dihydropyridine-4-carboxamide]: the IC50 turned out to be 692 nM. For `Cn1ccc(C(=O)NCc2ccccc2N2CCCCC2)c(O)c1=O` [Example 29, 3-hydroxy-1-methyl-2-oxo-N-(2-(piperidin-1-yl)benzyl)-1,2-dihydropyridine-4-carboxamide], the half-maximal inhibitory concentration (IC50) came out at 6540 nM. Turning to `O=C(NCc1ccccc1-c1ccc(F)cc1)c1ccn(CC(F)(F)F)c(=O)c1O` [Example 41, N-((4′-fluorobiphenyl-2-yl)methyl)-3-hydroxy-2-oxo-1-(2,2,2-trifluoroethyl)-1,2-dihydropyridine-4-], the IC50 came to 11.1 nM.

Turning to `Cn1c(Cl)cc(C(=O)NC2CCC(c3ccccc3)CC2)c(O)c1=O` (stereo not shown) [Example 44, 6-chloro-3-hydroxy-1-methyl-2-oxo-N-(4-phenylcyclohexyl)-1,2-dihydropyridine-4-carboxamide], the IC50 worked out at 475 nM. The same measure for `Cn1ccc(C(=O)NCc2cccc(-c3ccccc3)c2)c(O)c1=O` [Example 21, N-(biphenyl-3-ylmethyl)-3-hydroxy-1-methyl-2-oxo-1,2-dihydropyridine-4-carboxamide]: 17.9 nM. On to `Cn1ccc(C(=O)NCc2ccc(Oc3ccc(F)cc3)cc2)c(O)c1=O` [Example 16, N-(4-(4-fluorophenoxy)benzyl)-3-hydroxy-1-methyl-2-oxo-1,2-dihydropyridine-4-carboxamide], for which the half-inhibitory concentration (IC50) is 10 nM. Turning to `Cn1ccc(C(=O)NCc2ccccc2N2CCCC2)c(O)c1=O` [Example 31, 3-hydroxy-1-methyl-2-oxo-N-(2-(pyrrolidin-1-yl)benzyl)-1,2-dihydropyridine-4-carboxamide], the IC50 was determined as 6450 nM. For `Cn1c(C(F)(F)F)cc(C(=O)NCc2cccc(-c3ccc(Cl)cc3)c2)c(O)c1=O` [Example 32, N-((4′-chlorobiphenyl-3-yl)methyl)-3-hydroxy-1-methyl-2-oxo-6-(trifluoromethyl)-1,2-dihydropyridine-4-carboxamide] the value was 11.3 nM; for `O=C(N[C@H]1CC[C@@H](c2ccccc2)CC1)c1ccn(CCC(F)(F)F)c(=O)c1O` [Example 37, 3-hydroxy-2-oxo-N-(cis-4-phenylcyclohexyl)-1-(3,3,3-trifluoropropyl)-1,2-dihydropyridine-4-carboxamide], 352 nM; for `O=C(NC1CCN(c2ccc(F)cc2)CC1)c1ccn(CC(F)(F)F)c(=O)c1O` [Example 33, N-(1-(4-fluorophenyl)piperidin-4-yl)-3-hydroxy-2-oxo-1-(2,2,2-trifluoroethyl)-1,2-dihydropyridine-4-carboxamide], 4570 nM.

For orientation: IC50 means the concentration that inhibits the measured activity by half.
